According to ChEMBL document CHEMBL3994625, “Crystal structures, binding interactions, and ADME evaluation of brain penetrant N-substituted indazole-5-carboxamides as subnanomolar, selective monoamine oxidase B and dual MAO-A/B inhibitors” (Eur J Med Chem, 2017):
Converted amounts (≈) assume the structure as drawn.

Legend:
Homo sapiens = organism: Homo sapiens; test: Selectivity index, ratio of IC50 for recombinant human MAOA to IC50 for recombinant human MAOB
[1] = n-octanol-phosphate buffer distribution coefficient, log D of the compound at pH 7.4 after 90 mins by shake-flask method; type: physicochemical
[2] = n-octanol-phosphate buffer distribution coefficient, log D of the compound at pH 5.5 after 90 mins by shake-flask method; type: physicochemical
[3] = n-octanol-phosphate buffer distribution coefficient, log D of the compound at pH 2 after 90 mins by shake-flask method; type: physicochemical
[4] = Effective permeability of the compound at pH 2 at 200 uM after 4 hrs by PAMPA-GI assay; type: physicochemical; conditions: read-out: Peff
[5] = Effective permeability of the compound at pH 5.5 at 200 uM after 4 hrs by PAMPA-GI assay; type: physicochemical; conditions: read-out: Peff
[6] = Effective permeability of the compound at pH 7.4 at 200 uM after 4 hrs by PAMPA-GI assay; type: physicochemical; conditions: read-out: Peff
[7] = Effective permeability of the compound at pH 7.4 at 200 uM after 4 hrs by PAMPA-BBB assay; type: physicochemical; conditions: read-out: Peff
[8] = buffer, pH 7.4, […], 500 µM
[9] = buffer, pH 5.5, […], 500 µM
[10] = buffer, pH 2, […], 500 µM
physchem [11] = conditions: phosphate buffer, pH 7.4
physchem [12] = conditions: phosphate buffer, pH 5.5
physchem [13] = conditions: phosphate buffer, pH 2
[14] = biological target: T1, Amine oxidase [flavin-containing] A (Homo sapiens, UniProt P21397); test: biochemical
T1 sequence (P21397 whole entry): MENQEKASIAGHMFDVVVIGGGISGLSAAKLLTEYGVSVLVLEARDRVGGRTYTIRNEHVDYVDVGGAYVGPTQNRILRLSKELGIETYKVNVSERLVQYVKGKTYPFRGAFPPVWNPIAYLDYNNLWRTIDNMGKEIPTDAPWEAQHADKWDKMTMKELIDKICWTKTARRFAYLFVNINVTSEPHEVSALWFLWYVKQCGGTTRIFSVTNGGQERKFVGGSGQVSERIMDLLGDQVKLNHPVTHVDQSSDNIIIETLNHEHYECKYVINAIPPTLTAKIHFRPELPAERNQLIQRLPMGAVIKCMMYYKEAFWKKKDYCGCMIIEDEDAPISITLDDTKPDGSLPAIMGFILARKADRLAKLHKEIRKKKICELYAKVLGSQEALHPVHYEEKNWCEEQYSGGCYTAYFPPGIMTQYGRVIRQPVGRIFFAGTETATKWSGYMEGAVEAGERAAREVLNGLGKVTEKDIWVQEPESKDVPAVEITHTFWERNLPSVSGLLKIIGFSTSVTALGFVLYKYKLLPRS

[15] = biological target: T2, Amine oxidase [flavin-containing] B (Homo sapiens, UniProt P27338); test: biochemical
T2 sequence (P27338 whole entry): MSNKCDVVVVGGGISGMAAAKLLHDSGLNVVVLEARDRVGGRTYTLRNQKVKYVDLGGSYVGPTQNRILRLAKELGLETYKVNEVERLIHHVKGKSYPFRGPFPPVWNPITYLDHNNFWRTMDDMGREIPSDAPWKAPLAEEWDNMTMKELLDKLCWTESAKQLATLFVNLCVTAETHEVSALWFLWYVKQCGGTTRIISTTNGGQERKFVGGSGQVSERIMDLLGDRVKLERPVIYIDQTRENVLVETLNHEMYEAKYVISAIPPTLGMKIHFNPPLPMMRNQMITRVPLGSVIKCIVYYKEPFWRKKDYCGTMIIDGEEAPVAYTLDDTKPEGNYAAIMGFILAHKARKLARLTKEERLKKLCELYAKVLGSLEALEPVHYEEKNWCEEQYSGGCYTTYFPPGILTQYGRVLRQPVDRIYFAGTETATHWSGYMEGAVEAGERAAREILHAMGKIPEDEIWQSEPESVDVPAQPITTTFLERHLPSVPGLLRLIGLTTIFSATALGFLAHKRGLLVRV

[16] = biological target: T3, Amine oxidase [flavin-containing] B (Rattus norvegicus, UniProt P19643); test: Inhibition of MAOB in Sprague-Dawley rat liver mitochondria using p-tyramine as substrate measured for 45 mins in presence of MAOA inhibitor clorgyline by continuous fluorescence-based method
T3 sequence (P19643 whole entry): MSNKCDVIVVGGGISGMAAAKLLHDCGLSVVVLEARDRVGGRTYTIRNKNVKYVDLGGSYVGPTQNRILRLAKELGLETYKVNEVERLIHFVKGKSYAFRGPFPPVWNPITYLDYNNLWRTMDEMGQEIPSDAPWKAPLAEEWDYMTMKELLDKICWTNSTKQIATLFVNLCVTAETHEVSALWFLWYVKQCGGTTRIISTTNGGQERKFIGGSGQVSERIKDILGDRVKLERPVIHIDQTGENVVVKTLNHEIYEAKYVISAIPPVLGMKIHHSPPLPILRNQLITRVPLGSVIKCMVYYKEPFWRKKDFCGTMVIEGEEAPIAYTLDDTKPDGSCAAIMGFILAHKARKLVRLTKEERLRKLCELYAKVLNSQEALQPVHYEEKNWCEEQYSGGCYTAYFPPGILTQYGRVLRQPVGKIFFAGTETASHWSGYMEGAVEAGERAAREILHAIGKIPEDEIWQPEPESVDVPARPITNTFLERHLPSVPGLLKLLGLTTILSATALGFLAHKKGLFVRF

[17] = biological target: T4, Amine oxidase [flavin-containing] A (Rattus norvegicus, UniProt P21396)
T4 sequence (P21396 whole entry): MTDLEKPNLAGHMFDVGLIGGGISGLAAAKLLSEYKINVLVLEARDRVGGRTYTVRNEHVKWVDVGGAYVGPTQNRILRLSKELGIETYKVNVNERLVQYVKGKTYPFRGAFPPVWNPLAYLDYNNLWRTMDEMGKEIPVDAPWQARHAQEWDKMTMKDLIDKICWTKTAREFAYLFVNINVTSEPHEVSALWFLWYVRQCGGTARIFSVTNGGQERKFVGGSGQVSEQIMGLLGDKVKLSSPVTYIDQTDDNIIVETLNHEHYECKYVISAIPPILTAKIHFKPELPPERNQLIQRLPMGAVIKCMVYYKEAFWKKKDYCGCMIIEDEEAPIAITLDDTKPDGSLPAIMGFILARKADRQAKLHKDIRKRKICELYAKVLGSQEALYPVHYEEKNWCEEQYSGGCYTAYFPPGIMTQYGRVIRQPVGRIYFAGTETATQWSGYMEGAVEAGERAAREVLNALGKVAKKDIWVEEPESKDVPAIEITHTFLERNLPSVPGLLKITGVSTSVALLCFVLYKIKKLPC

Row | Ratio IC50 (Homo sapiens) | logD at […] [1] | logD at […] [2] | logD at […] [3] | Structure (SMILES) | Papp at 4 h, 200 µM [4] [×10⁻⁶ cm/s] | Papp at 4 h, 200 µM [5] [×10⁻⁶ cm/s] | Papp at 4 h, 200 µM [6] [×10⁻⁶ cm/s] | Papp at 4 h, 200 µM [7] [×10⁻⁶ cm/s] | log(Kinetic_solubility) [8] | log(Kinetic_solubility) [9] | log(Kinetic_solubility) [10] | solubility kinetic at […], 500 µM (physchem [11]) [µM] | solubility kinetic at […], 500 µM (physchem [12]) [µM] | solubility kinetic at […], 500 µM (physchem [13]) [µM] | IC50 [14] [nM] | Ki [15] [nM] | IC50 [16] [nM] | IC50 [17] [nM] | IC50 [15] [nM]
1 | 6580 | – | – | – | Cn1ncc2cc(C(=O)Nc3ccc(F)c(F)c3)ccc21 | – | – | – | – | – | – | – | – | – | – | – | – | – | – | –
2 | – | – | 2.52 | 2.39 | Cn1ncc2cc(C(=O)Nc3ccc(F)c(Cl)c3)ccc21 | 27.2 | 29.5 | 31.7 | 37.6 | – | – | – | 77.4 (≈ 23.5 µg/mL) | 69.1 (≈ 21 µg/mL) | 57.5 (≈ 17.5 µg/mL) | – | – | – | – | –
3 | – | 2.97 | 2.54 | 2.49 | Cn1cc2cc(C(=O)Nc3ccc(Cl)c(Cl)c3)ccc2n1 | 14.5 | 16.1 | 17.6 | 29 | -4.25 | -4.3 | -4.24 | 55.9 (≈ 17.9 µg/mL) | 50 (≈ 16 µg/mL) | 57.5 (≈ 18.4 µg/mL) | – | 0.64 | – | – | –
4 | > 86 | – | – | – | O=C(Nc1ccccc1)c1ccc2[nH]ncc2c1 | – | – | – | – | – | – | – | – | – | – | – | – | – | – | –
5 | 17100 | – | – | – | O=C(Nc1ccc(Cl)c(Cl)c1)c1ccc2[nH]ncc2c1 | – | – | – | – | – | – | – | – | – | – | – | – | – | – | –

Second part, the compound before the results:

Row | Structure (SMILES) | Ratio IC50 (Homo sapiens) | logD at […] [1] | logD at […] [2] | logD at […] [3] | Papp at 4 h, 200 µM [4] [×10⁻⁶ cm/s] | Papp at 4 h, 200 µM [5] [×10⁻⁶ cm/s] | Papp at 4 h, 200 µM [6] [×10⁻⁶ cm/s] | Papp at 4 h, 200 µM [7] [×10⁻⁶ cm/s] | log(Kinetic_solubility) [8] | log(Kinetic_solubility) [9] | log(Kinetic_solubility) [10] | solubility kinetic at […], 500 µM (physchem [11]) [µM] | solubility kinetic at […], 500 µM (physchem [12]) [µM] | solubility kinetic at […], 500 µM (physchem [13]) [µM] | IC50 [14] [nM] | Ki [15] [nM] | IC50 [16] [nM] | IC50 [17] [nM] | IC50 [15] [nM]
6 | Cn1cc2cc(C(=O)Nc3ccc(F)c(Cl)c3)ccc2n1 | 70 | 2.64 | 2.55 | 3.24 | 8.16 | 9.11 | 9.35 | 17.2 | -3.36 | -3.38 | -3.36 | 441 (≈ 134 µg/mL) | 421 (≈ 128 µg/mL) | 439 (≈ 133 µg/mL) | 8.13 | 3.57 | – | – | –
7 | Cn1cc2cc(C(=O)Nc3ccc(F)c(F)c3)ccc2n1 | 20 | – | – | – | – | – | – | – | – | – | – | – | – | – | – | – | – | – | –
8 | COCCc1ccc(OCC(O)CNC(C)C)cc1 (stereo unspecified) [METOPROLOL] | – | -0.37 | -0.76 | -2.46 | – | – | – | – | – | – | – | – | – | – | – | – | – | – | –
9 | O=C(Nc1ccc(F)c(F)c1)c1ccc2[nH]ncc2c1 | 6290 | – | 1.94 | 2.17 | ≤ 0.59 | ≤ 0.59 | ≤ 0.59 | 8.15 | -4.22 | -4.2 | -4.21 | 60.7 (≈ 16.6 µg/mL) | 62.7 (≈ 17.1 µg/mL) | 61.1 (≈ 16.7 µg/mL) | 6.61 | – | – | – | –
10 | COCCn1ncc2cc(C(=O)Nc3ccc(Cl)c(Cl)c3)ccc21 | > 2660 | – | – | – | – | – | – | – | – | – | – | – | – | – | 2870 | 0.48 | 3.82 | > 10000 | 1.08
11 | Cn1ncc2cc(C(=O)Nc3ccc(Cl)c(Cl)c3)ccc21 | – | – | – | – | 18.3 | 16.8 | 18.6 | 22.3 | -5.45 | -5.52 | -5.39 | 3.51 (≈ 1.12 µg/mL) | 3.04 (≈ 0.973 µg/mL) | 4.07 (≈ 1.3 µg/mL) | – | – | – | – | –
